Test system: messenger RNAs coding for the protein CD59
Test: cDNA array of CD59 mRNA on standard human dermal fibroblasts
Assay type: cell-based
Details: for Comparision of the Control Population with the Population Exposed to the Extract (in %) / Fibroblasts Exposed to the Extract (RE): 15 micrograms/ml; for Comparision of the Control Population with the Population Exposed to the Extract (in %): control = 100; for Fibroblasts Exposed to the Extract (RE): control fibroblasts 6.1 RE
Procedure: The methodology used is that recommended by Clontech (Palo Alto, USA). […] The total RNA solutions were treated with DNAse I in order to remove any trace of contaminant DNA, in accordance with the supplier's recommendations. The quality of the RNA was then verified on agarose gel and the RNA solutions were adjusted to 1 μg/ml.
The next step was the purification of the messenger RNAs (mRNA) by hybridization of the poly(A) ends of the mRNAs using biotinylated oligo(dT) primers and selective capture on streptavidin beads, in accordance with the Atlaspure protocol (Clontech). ^33P-labeled DNA probes were produced by reverse transcription of the niRNAs bound to poly(dT) beads, using a pool of specific primers of the immobilized sequences on membranes (arrays), in the presence of (α^33P)-dATP. This step used the reagents and the protocol recommended by Clontech. The labeled probes were purified by chromatography on an exclusion column, and the quality and equivalence of the labeled probes was evaluated by liquid scintillation counting.
cDNA array membranes were pretreated and then the cDNAs immobilized on each membrane were hybridized (68° C., overnight) with the corresponding labeled probes. The filters were subsequently washed and placed in individual plastic bags for analysis. Analysis took place by direct quantification of the radioactivity of the spots using a Cyclone phosphoimager (Packard). The results were expressed in relative expression units (RE, radioactivity of the spot corresponding to each gene, corrected for the background noise and for the differences in intensity of labeling of the probes).
The study was carried out on standard human fibroblasts. Dermal fibroblasts were cultivated in DMEM (Life Technology, ref. 21969035) containing L-glutamine (2 mM, Life Technology, ref. 25030024), 50 IU/ml penicillin and 50 μg/ml streptomycin (Life Technology, ref. 15070063) and 1% foetal calf serum (v/v, Life Technology, ref. 10106151).
A fraction of a root extract of Panax notoginseng (San Qi) containing only the saponins was tested for its activity in accordance with the protocol described in the foregoing example by the technique of cDNA array on fibroblasts. The two principal saponins from the extract were also tested.
All the products were tested at a final concentration of 15 micrograms/ml

SMILES | effect on expression of messenger RNAs coding for the protein CD59 (in words) | Comparision of the Control Population with the Population Exposed to the Extract (in %) | Fibroblasts Exposed to the Extract (RE)
CC(C)=CCC[C@](C)(O[C@@H]1O[C@H](CO[C@@H]2O[C@H](CO)[C@@H](O)[C@H](O)[C@H]2O)[C@@H](O)[C@H](O)[C@H]1O)[C@H]1CC[C@]2(C)[C@@H]1[C@H](O)C[C@@H]1[C@@]3(C)CC[C@H](O[C@@H]4O[C@H](CO)[C@@H](O)[C@H](O)[C@H]4O[C@@H]4O[C@H](CO)[C@@H](O)[C@H](O)[C@H]4O)C(C)(C)[C@@H]3CC[C@]12C [Rb1, Rb1 ginsenoside] | significantly modify | 277% | 13.8 RE
CC(C)=CCC[C@](C)(O[C@@H]1O[C@H](CO)[C@@H](O)[C@H](O)[C@H]1O)[C@H]1CC[C@]2(C)[C@@H]1[C@H](O)C[C@@H]1[C@@]3(C)CC[C@H](O)C(C)(C)[C@@H]3[C@@H](O[C@@H]3O[C@H](CO)[C@@H](O)[C@H](O)[C@H]3O)C[C@]12C [Rg1, Rg1 ginsenoside] | significantly modify | 277% | 16.8 RE
